This note sets out measurements from the Deep4Chem optical property database.

This data set can be described thus: solvent given as SMILES.

Structures are written as SMILES.

For the setting “in ClCCl”, `CCCCCCN1C(=O)c2cccc3c(-c4ccc(-c5cc(-c6ccc(C)cc6)nn5-c5ccccc5)s4)ccc(c23)C1=O` had an absorption maximum of 389 nm.

For the compound `N#Cc1ccc(N2c3c(sc4ccccc34)Sc3sc4ccccc4c32)cc1`, the absorption maximum (in ClCCl) is 309 nm.

For the compound `CCOC(=O)c1sc(SC)c2c(=O)n(C)nnc12`, the absorption maximum reads like this: (in C1CCOC1) 387.5 nm; (in CC#N) 388 nm; (in CCO) 391 nm; (in CN(C)C=O) 391.5 nm; (in CO) 391.5 nm; (in CS(C)=O) 393.5 nm.

`CC(C)(C)c1ccc2c(c1)c1cc(C(C)(C)C)ccc1n2-c1ccc(-c2ccc3c(c2)C2(c4cc(-c5ccc(-n6c7ccc(C(C)(C)C)cc7c7cc(C(C)(C)C)ccc76)cc5)ccc4-3)c3ccccc3S(=O)(=O)c3ccccc32)cc1` returned an absorption maximum (in ClCCl) of 353 nm.

On to `CC(=O)c1c(N[C@@H](Cc2ccc(O)cc2)C(=O)O)c2ccc(N(C)C)cc2oc1=O`, for which the absorption maximum (in ClCCl) was 368 nm.

Where the note is “in C1CCOC1”, `C(=C1c2ccccc2CCc2ccccc21)c1ccc(C=C2c3ccccc3CCc3ccccc32)cc1` had an absorption maximum of 330 nm.

`CC(C)(C)c1ccc(C2=C(c3ccc(N(c4ccccc4)c4ccccc4)cc3)S(=O)(=O)c3c2sc(-c2ccc(N(c4ccccc4)c4ccccc4)cc2)c3-c2ccc(C(C)(C)C)cc2)cc1` returned an absorption maximum (in C1CCOC1) of 463 nm.

As for `CCCCCc1c(Oc2cc(O)cc(CCC(=O)CC)c2C(=O)OC)c(OC)cc(O)c1C(=O)O`, for the setting “in ClC(Cl)Cl”, the absorption maximum is given as 312 nm.

`CCN1\C(=C/C=C/C=C/C2=[N+](CC)c3ccc4ccccc4c3C2(C)C)C(C)(C)c2c1ccc1ccccc21`: the absorption maximum is, setting by setting: (in C1CCOC1) 684 nm; (in CC#N) 677 nm; (in CC(C)=O) 680 nm; (in CCO) 682 nm; (in CN(C)C=O) 683 nm; (in CO) 678 nm. The compound also showed an absorption maximum (in CS(C)=O) of 686 nm and an absorption maximum (in ClCCl) of 693 nm.

`CCCCN1/C(=C/C=C/C2=[N+](C)c3ccccc3C2(C)C)C(C)(C)c2cc(Br)ccc21` came in with an absorption maximum (in CS(C)=O) of 556 nm.

For `O=C(/C=C/c1cn(-c2ccccc2)nc1-c1ccccc1)c1c(O)c2ccccc2oc1=O`, the absorption maximum (in C1CCOC1) worked out at 406 nm; the absorption maximum (in C1COCCO1) is 405 nm; the absorption maximum (in CCO) stood at 400 nm; the absorption maximum (in CCOC(C)=O) came out at 402 nm; the absorption maximum (in CN(C)C=O) stood at 381 nm; the absorption maximum (in CO) came to 352 nm. Moreover, the absorption maximum was 401 nm (in CS(C)=O), 409 nm (in Cc1ccccc1), 405 nm (in ClC(Cl)Cl) and 404 nm (in ClCCl).

Compound `COc1ccc(-c2csc(/C(C#N)=C/c3ccccc3Cl)n2)cc1` yielded an absorption maximum (in CC#N) of 372 nm.

For the compound `c1ccc(-c2cc(-c3ccc4ccc5c(-c6ccnc(-c7ccccn7)c6)ccc6ccc3c4c65)ccn2)nc1`, the absorption maximum is, setting by setting: (in C1CCOC1) 362 nm; (in CC#N) 360 nm; (in CCC#N) 360 nm; (in CCCC#N) 360 nm; (in CCCCCC) 361 nm; (in CCCO) 361 nm. Further, the absorption maximum is recorded as 361 nm (in CCO), 363 nm (in CO) and 362 nm (in Cc1ccccc1).

Compound `c1ccc(-c2c3c(cc4c2-c2ccccc2C4)-c2ccccc2C3)cc1` had an absorption maximum (in C1CCCCC1) of 331 nm.

Turning to `CN(C)c1ccc(C#Cc2cc3ccc4cc(C#Cc5ccc(N(C)C)cc5)cc5ccc(c2)c3c45)cc1`, under “in Cc1ccccc1”, the absorption maximum came to 421 nm.

In the case of `COCCOCCOCCOc1ccc(OCCOCCOCCOC)c(C=O)c1`, the absorption maximum is, setting by setting: (in CC(C)(C)O) 349 nm; (in CC(C)CO) 349 nm; (in CC(C)O) 349 nm; (in CCCCO) 348 nm; (in CCCO) 348 nm; (in CCO) 348 nm. Also, the absorption maximum was found to be 349 nm (in CN(C)C=O); 349 nm (in CNC=O); 348 nm (in CO); 352 nm (in NC=O); 350 nm (in O).

In the case of `CCSSCC`, the absorption maximum (in CCCCCC) was found to be 250 nm.

Regarding `COc1c(-c2ccc(N(C)C)cc2)oc2ccccc2c1=O`, the absorption maximum is 361 nm (in C1CCCCC1), 375 nm (in CC#N) and 372 nm (in CCOC(C)=O).

`c1ccc(-c2csc(-c3ccncc3)n2)cc1`: the absorption maximum by setting is: (in CC#N) 370 nm; (in CCO) 325 nm; (in CN(C)C=O) 323 nm; (in CS(C)=O) 325 nm; (in ClCCl) 376 nm.

Take `CCOC(=O)CN1C(=O)C2=C(c3ccc(N4CCCCC4)cc3)N(CC(=O)OCC)C(=O)C2=C1c1ccccc1`: the absorption maximum by setting is: (in CC#N) 500 nm; (in CS(C)=O) 516 nm; (in Cc1ccccc1) 499 nm.

The compound `CN1/C(=C\C=C\C2=C3C=CC(c4ccccc4)=[N+]3[B-](F)(F)n3c2ccc3-c2ccccc2)Sc2ccccc21` yielded an absorption maximum (in CC#N) of 683 nm.

Turning to `C[P+]1(c2ccccc2)c2ccccc2-c2sc3ccccc3c21` (configuration not stated), the absorption maximum reads like this: (in CC#N) 335 nm; (in CCO) 336 nm; (in ClCCl) 340 nm.

Where the note is “in ClCCl”, `CCCCCCCCCCCCN1C(=O)c2c(c3ccc4cc(-c5ccc(OC)cc5)c(OC)cc4c3c3c2ccc2cc(-c4ccc(OC)cc4)c(OC)cc23)C1=O` had an absorption maximum of 443 nm.

Compound `CCOC(=O)CCCCCn1c2ccccc2c(=O)c2cc(N)ccc21` came in with an absorption maximum (in O) of 405 nm.

For the setting “in C1CCCCC1”, `Cc1cc(C)c(B2c3cc(C(C)(C)C)ccc3-c3cccc4cc(C(C)(C)C)cc2c34)c(C)c1` displayed an absorption maximum of 409 nm.

With `Cc1ccc(C2=[N+]3C(=Cc4c(C)cc(C)n4[B-]3(F)F)c3ccccc32)[nH]1`, the absorption maximum (in C1CCOC1) is on record as 607 nm; the absorption maximum (in CC#N) amounted to 600 nm; the absorption maximum (in CCCCCC) is given as 607 nm; the absorption maximum (in CO) stood at 602 nm; the absorption maximum (in Cc1ccccc1) was determined as 612 nm; the absorption maximum (in ClCCl) amounted to 608 nm.

With `CN(C)c1ccc(/C=C2\CCCC2=O)cc1`, the absorption maximum runs as follows: (in CC#N) 380 nm; (in CC(C)=O) 379 nm; (in CC(C)O) 390 nm; (in CCCCCC) 357 nm; (in CCCCO) 392 nm; (in CCCO) 394 nm. In addition, the absorption maximum runs as follows: (in CCO) 390 nm; (in CCOC(C)=O) 370 nm; (in CCOCC) 365 nm; (in CN(C)C=O) 383 nm; (in CO) 391 nm; (in CS(C)=O) 383 nm. Also, the absorption maximum runs as follows: (in Cc1ccccc1) 373 nm; (in ClC(Cl)(Cl)Cl) 370 nm; (in ClC(Cl)Cl) 383 nm; (in ClCCl) 383 nm; (in S=C=S) 387 nm; (in c1ccccc1) 380 nm. The absorption maximum (in c1ccncc1) was 384 nm.

On to `Cc1ccc2ccc3c(C)ccc4ccc1c2c43`, for which the absorption maximum runs as follows: (in CCCCCC) 344 nm; (in CO) 344 nm; (in ClCCl) 346 nm.
